Data reported in patent publication US20240270762A1, “PENICILLIN-BINDING PROTEIN INHIBITORS” (priority 2021, published 2024).
Converted amounts (≈) assume the structure as drawn. Read-outs that look alike come from different tables or passages of the source.

Legend:
[1] = target: T1, PBP3 from Escherichia coli (K-12) (Escherichia coli, UniProt P0AD68); assay: Bocillin-FL fluorescence polarization competition binding, E. coli PBP3
T1 construct: made in house
Method in brief: (§1)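 Purified PBP was preincubated with inhibitor (E. coli PBP3 1.5 μM, 30 min; P. aeruginosa PBP3 0.75 μM, A. baumannii PBP3 0.2 μM and PBP1a 1 μM, 15 min), then Bocillin-FL (0.1 μM; 0.05 μM for PBP1a) added and FP read up to 60 min. EC50 = 50% loss of bound probe.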

[2] = target: T2, PBP3 from Pseudomonas aeruginosa (PAO1) (Pseudomonas aeruginosa, UniProt G3XD46); assay: Bocillin-FL fluorescence polarization competition binding, P. aeruginosa PBP3; conditions: Binding affinity to P. aeruginosa PBP3; fluorescence polarization competition binding assay using Bocillin-FL; read-out: P. aeruginosa PBP3 Potency
T2 construct: made in house
T2 sequence (G3XD46 whole entry): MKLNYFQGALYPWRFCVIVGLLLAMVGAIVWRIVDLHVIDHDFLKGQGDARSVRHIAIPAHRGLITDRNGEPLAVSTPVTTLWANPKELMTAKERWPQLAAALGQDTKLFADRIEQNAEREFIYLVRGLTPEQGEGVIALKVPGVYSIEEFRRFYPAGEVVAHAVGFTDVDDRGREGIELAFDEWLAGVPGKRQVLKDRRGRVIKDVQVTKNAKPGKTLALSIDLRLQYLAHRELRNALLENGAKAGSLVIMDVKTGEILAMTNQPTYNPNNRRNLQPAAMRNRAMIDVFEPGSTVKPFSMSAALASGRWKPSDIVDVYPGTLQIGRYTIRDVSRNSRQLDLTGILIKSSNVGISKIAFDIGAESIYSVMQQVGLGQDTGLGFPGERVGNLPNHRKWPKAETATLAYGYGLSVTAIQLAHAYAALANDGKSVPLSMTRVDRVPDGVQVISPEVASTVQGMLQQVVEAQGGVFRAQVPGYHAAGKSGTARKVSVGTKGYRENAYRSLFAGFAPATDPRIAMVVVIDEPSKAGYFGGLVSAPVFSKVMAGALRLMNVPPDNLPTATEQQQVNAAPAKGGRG
Method in brief: as §1

[3] = tested on: P. aeruginosa CDC-0054; assay: microbe, parasite or virus in culture; type: cell-based; conditions: Pseudomonas aeruginosa, CDC0054, read-out: Minimum inhibitory concentration, P. aeruginosa CDC-0054
[4] = tested on: P. aeruginosa CDC-0095; assay: microbe, parasite or virus in culture; type: cell-based; conditions: Pseudomonas aeruginosa, CDC0095, read-out: Minimum inhibitory concentration, P. aeruginosa CDC-0095
[5] = tested on: A. baumannii CDC-0033; assay: microbe, parasite or virus in culture; type: cell-based; conditions: Acinetobacter baumannii, CDC0033, read-out: MIC, A. baumannii CDC-0033
[6] = tested on: N. gonorrhoeae ATCC 49226; assay: Liquid broth MIC in Fastidious broth; conditions: Neisseria gonorrhoeae
[7] = tested on: N. gonorrhoeae FA1090; assay: Liquid broth MIC in Fastidious broth; conditions: Neisseria gonorrhoeae
[8] = tested on: N. gonorrhoeae MS11; assay: Liquid broth MIC in Fastidious broth; conditions: Neisseria gonorrhoeae
[9] = tested on: N. gonorrhoeae WHO G; assay: Liquid broth MIC in Fastidious broth; conditions: Neisseria gonorrhoeae
Protocol: Additional antibacterial testing of the series was performed in 8 reference strains of N. gonorrhoeae (ATCC 49226, FA1090, MS 11, WHO G, WHO L, WHO M, WHO K, WHO X, WHO Z, WHO Q, CDC-0197). ATCC 49226, FA1090, MS11, WHO G, WHO L, and WHO M produce wild type or wild-type like PBP2. WHO K, WHO X, WHO Z, WHO Q, and CDC-0197 produce mosaic PBP2. Liquid broth-based assays were used for antibacterial testing of PBP inhibitors in Neisseria gonorrhoeae. Briefly, cryo-preserved bacterial cultures of clinical strains were streaked for isolation on Chocolate Agar (72 g/L (2×) GC Agar Base (BD #228950) and 2% (2×) Hemoglobin was autoclaved at 121° C. for 20 minutes to sterilize. Once cooled to ˜50° C. the 2×GC Agar Base and 2× Hemoglobin solutions are combined and 1% IsoVitaleX Enrichment (BD #211876) was added to the solution). Strains were incubated at 36° C. and 5% CO2 to allow growth of colonies, 24 hours before inoculum preparation. 2-fold serial dilutions of test compounds were conducted in a 96 well plate with a final volume of 75 μL per well at 2-fold the final desired concentration in Fastidious broth (Remel #R07664). For preparation of assay inoculum, a direct suspension was prepared by aseptically swabbing 10-15 colonies from agar plates into culture tubes containing 2 mL of fresh sterile saline. After the dilution plates were set up, direct suspensions were then diluted in a cuvette containing sterile saline and the optical density was measured at 600 nm. Inocula were diluted such that 75 μL of this culture in Fastidious broth results in a starting bacterial concentration of 5×10^5 CFU/mL when added to the dilution plates. The plates were incubated for ˜24 hours at 36° C. and 5% CO2.

[10] = tested on: N. gonorrhoeae WHO M; assay: Liquid broth MIC in Fastidious broth; conditions: Neisseria gonorrhoeae
[11] = tested on: N. gonorrhoeae WHO K; assay: Liquid broth MIC in Fastidious broth; conditions: Neisseria gonorrhoeae
[12] = tested on: N. gonorrhoeae WHO Z; assay: Liquid broth MIC in Fastidious broth; conditions: Neisseria gonorrhoeae
[13] = ATCC49226, read-out: Minimum Inhibitory Concentration (MIC), N. gonorrhoeae ATCC 49226
[14] = FA1090, read-out: Minimum Inhibitory Concentration (MIC), N. gonorrhoeae FA 1090
[15] = MS11, read-out: Minimum Inhibitory Concentration (MIC), N. gonorrhoeae MS11
[16] = read-out: Minimum Inhibitory Concentration (MIC), N. gonorrhoeae WHO G
[17] = read-out: Minimum Inhibitory Concentration (MIC), N. gonorrhoeae WHO M
[18] = read-out: Minimum Inhibitory Concentration (MIC), N. gonorrhoeae WHO K
[19] = read-out: Minimum Inhibitory Concentration (MIC), N. gonorrhoeae WHO Z
[20] = ATCC49226, read-out: Minimum Inhibitory Concentration, ATCC 49226
[21] = FA1090, read-out: Minimum Inhibitory Concentration, FA 1090
[22] = MS11, read-out: Minimum Inhibitory Concentration, MS11
[23] = read-out: Minimum Inhibitory Concentration, WHO G
[24] = read-out: Minimum Inhibitory Concentration, WHO M
[25] = read-out: Minimum Inhibitory Concentration, WHO K
[26] = read-out: Minimum Inhibitory Concentration, WHO Z

T1 sequence (P0AD68 1-577): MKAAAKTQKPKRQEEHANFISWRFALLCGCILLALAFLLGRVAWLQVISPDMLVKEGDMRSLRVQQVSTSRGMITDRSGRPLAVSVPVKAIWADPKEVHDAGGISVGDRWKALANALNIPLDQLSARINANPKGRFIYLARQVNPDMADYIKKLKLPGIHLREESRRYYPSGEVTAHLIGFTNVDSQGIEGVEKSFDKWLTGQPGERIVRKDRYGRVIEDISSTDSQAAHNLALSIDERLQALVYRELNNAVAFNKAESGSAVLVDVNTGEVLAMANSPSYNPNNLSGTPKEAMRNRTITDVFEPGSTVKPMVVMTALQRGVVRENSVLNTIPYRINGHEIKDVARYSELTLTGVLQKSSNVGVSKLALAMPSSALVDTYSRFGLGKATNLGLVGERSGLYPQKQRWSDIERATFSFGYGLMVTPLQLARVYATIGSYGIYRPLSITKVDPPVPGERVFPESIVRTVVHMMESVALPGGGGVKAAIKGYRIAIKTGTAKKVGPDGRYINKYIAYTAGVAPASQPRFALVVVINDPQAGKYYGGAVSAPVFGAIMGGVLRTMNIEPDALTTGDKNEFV

Row | SMILES | EC50 [1] [µM] | IC50 [2] [µM] | MIC [3] [µg/mL] | MIC [4] [µg/mL] | MIC [5] [µg/mL] | MIC [6, 13] [µg/mL] | MIC [7, 14] [µg/mL] | MIC [8, 15] [µg/mL] | MIC [9, 16] [µg/mL] | MIC [10, 17] [µg/mL] | MIC [11, 18] [µg/mL] | MIC [12, 19] [µg/mL] | MIC [6, 20] [µg/mL] | MIC [7, 21] [µg/mL] | MIC [8, 22] [µg/mL] | MIC [9, 23] [µg/mL] | MIC [10, 24] [µg/mL] | MIC [11, 25] [µg/mL] | MIC [12, 26] [µg/mL]
1 | O=C(NCCN1CCN(C(=O)NC(C(=O)N[C@H]2Cc3ccc(F)c(C(=O)O)c3OB2O)c2cc(F)c(O)c(O)c2Cl)C1=O)c1ccc(O)cc1 (stereo partly drawn) [Example 243, (3R)-3-(2-(2-chloro-5-fluoro-3,4-dihydroxyphenyl)-2-(3-(2-(4-hydroxybenzamido)ethyl)-2-oxoimidazolidine-1-carboxamido)acetamido)-7-fluoro-2-hydroxy-3,4-dihydro-2H-benzo[e][1,2]oxaborinine-8-carboxylic acid] | 10 to 50 | < 10 | 2 to 4 (≈ 2.79 to 5.57 µM) | 8 to 16 (≈ 11.1 to 22.3 µM) | 2 to 4 (≈ 2.79 to 5.57 µM) | 16 to 32 (≈ 22.3 to 44.6 µM) | 4 to 8 (≈ 5.57 to 11.1 µM) | 16 to 32 (≈ 22.3 to 44.6 µM) | 16 to 32 (≈ 22.3 to 44.6 µM) | 4 to 8 (≈ 5.57 to 11.1 µM) | > 64 | 16 to 32 (≈ 22.3 to 44.6 µM) | – | – | – | – | – | – | –
2 | CN(CCN1CCN(C(=O)N[C@@H](C(=O)N[C@H]2Cc3ccc(F)c(C(=O)O)c3OB2O)c2cc(F)c(O)c(O)c2Cl)C(=O)C1=O)Cc1cccc(C(N)=O)c1 [Example 225, (R)-3-((R)-2-(4-(2-((3-carbamoylbenzyl)(methyl)amino)ethyl)-2,3-dioxopiperazine-1-carboxamido)-2-(2-chloro-5-fluoro-3,4-dihydroxyphenyl)acetamido)-7-fluoro-2-hydroxy-3,4-dihydro-2H-benzo[e][1,2]oxaborinine-8-carboxylic acid] | 10 to 50 | < 10 | 2 to 4 (≈ 2.59 to 5.18 µM) | 2 to 4 (≈ 2.59 to 5.18 µM) | 2 to 4 (≈ 2.59 to 5.18 µM) | 16 to 32 (≈ 20.7 to 41.4 µM) | 1 to 2 (≈ 1.29 to 2.59 µM) | 16 to 32 (≈ 20.7 to 41.4 µM) | 16 to 32 (≈ 20.7 to 41.4 µM) | 16 to 32 (≈ 20.7 to 41.4 µM) | > 64 | 16 to 32 (≈ 20.7 to 41.4 µM) | – | – | – | – | – | – | –
3 | O=C(NCCCN1CCN(C(=O)NC(C(=O)N[C@H]2Cc3ccc(F)c(C(=O)O)c3OB2O)c2cc(F)c(O)c(O)c2Cl)C1=O)c1nccs1 (stereo partly drawn) [Example 257, (3R)-3-(2-(2-chloro-5-fluoro-3,4-dihydroxyphenyl)-2-(2-oxo-3-(3-(thiazole-2-carboxamido)propyl)imidazolidine-1-carboxamido)acetamido)-7-fluoro-2-hydroxy-3,4-dihydro-2H-benzo[e][1,2]oxaborinine-8-carboxylic acid] | 10 to 50 | < 10 | 2 to 4 (≈ 2.77 to 5.53 µM) | 2 to 4 (≈ 2.77 to 5.53 µM) | 2 to 4 (≈ 2.77 to 5.53 µM) | – | – | – | – | – | – | – | > 64 | 4 to 8 (≈ 5.53 to 11.1 µM) | 16 to 32 (≈ 22.1 to 44.3 µM) | > 64 | 16 to 32 (≈ 22.1 to 44.3 µM) | > 64 | 16 to 32 (≈ 22.1 to 44.3 µM)
4 | O=C(NCCCN1CCN(C(=O)NC(C(=O)N[C@H]2Cc3ccc(F)c(C(=O)O)c3OB2O)c2cc(F)c(O)c(O)c2Cl)C(=O)C1=O)c1cccc(O)c1 (stereo partly drawn) [Example 204, (3R)-3-(2-(2-chloro-5-fluoro-3,4-dihydroxyphenyl)-2-(4-(3-(3-hydroxybenzamido)propyl)-2,3-dioxopiperazine-1-carboxamido)acetamido)-7-fluoro-2-hydroxy-3,4-dihydro-2H-benzo[e][1,2]oxaborinine-8-carboxylic acid] | < 10 | < 10 | < 1 | < 1 | 2 to 4 (≈ 2.63 to 5.26 µM) | 16 to 32 (≈ 21.1 to 42.1 µM) | 1 to 2 (≈ 1.32 to 2.63 µM) | 16 to 32 (≈ 21.1 to 42.1 µM) | 4 to 8 (≈ 5.26 to 10.5 µM) | 4 to 8 (≈ 5.26 to 10.5 µM) | > 64 | 16 to 32 (≈ 21.1 to 42.1 µM) | – | – | – | – | – | – | –
5 | O=C(CN1CCN(C(=O)NC(C(=O)N[C@H]2Cc3ccc(F)c(C(=O)O)c3OB2O)c2cc(F)c(O)c(O)c2Cl)C(=O)C1=O)Nc1ccc(O)cc1 (stereo partly drawn) [Example 230, (3R)-3-(2-(2-chloro-5-fluoro-3,4-dihydroxyphenyl)-2-(4-(2-((4-hydroxyphenyl)amino)-2-oxoethyl)-2,3-dioxopiperazine-1-carboxamido)acetamido)-7-fluoro-2-hydroxy-3,4-dihydro-2H-benzo[e][1,2]oxaborinine-8-carboxylic acid] | < 10 | < 10 | < 1 | < 1 | 2 to 4 (≈ 2.73 to 5.47 µM) | 4 to 8 (≈ 5.47 to 10.9 µM) | 1 to 2 (≈ 1.37 to 2.73 µM) | 4 to 8 (≈ 5.47 to 10.9 µM) | 4 to 8 (≈ 5.47 to 10.9 µM) | 4 to 8 (≈ 5.47 to 10.9 µM) | 16 to 32 (≈ 21.9 to 43.7 µM) | 4 to 8 (≈ 5.47 to 10.9 µM) | – | – | – | – | – | – | –
6 | CN(CCN1CCN(C(=O)N[C@@H](C(=O)N[C@H]2Cc3ccc(F)c(C(=O)O)c3OB2O)c2cc(F)c(O)c(O)c2Cl)C(=O)C1=O)Cc1cccnc1 [Example 201, (R)-3-((R)-2-(2-chloro-5-fluoro-3,4-dihydroxyphenyl)-2-(4-(2-(methyl(pyridin-3-ylmethyl)amino)ethyl)-2,3-dioxopiperazine-1-carboxamido)acetamido)-7-fluoro-2-hydroxy-3,4-dihydro-2H-benzo[e][1,2]oxaborinine-8-carboxylic acid] | < 10 | < 10 | < 1 | < 1 | 2 to 4 (≈ 2.74 to 5.47 µM) | 16 to 32 (≈ 21.9 to 43.8 µM) | 1 to 2 (≈ 1.37 to 2.74 µM) | 16 to 32 (≈ 21.9 to 43.8 µM) | 4 to 8 (≈ 5.47 to 10.9 µM) | 4 to 8 (≈ 5.47 to 10.9 µM) | 16 to 32 (≈ 21.9 to 43.8 µM) | > 64 | – | – | – | – | – | – | –
7 | O=C(NCCCN1CCN(C(=O)N[C@@H](C(=O)N[C@H]2Cc3ccc(F)c(C(=O)O)c3OB2O)c2cc(F)c(O)c(O)c2Cl)C1=O)c1ccccc1 [Example 253, (R)-3-((R)-2-(3-(3-benzamidopropyl)-2-oxoimidazolidine-1-carboxamido)-2-(2-chloro-5-fluoro-3,4-dihydroxyphenyl)acetamido)-7-fluoro-2-hydroxy-3,4-dihydro-2H-benzo[e][1,2]oxaborinine-8-carboxylic acid] | < 10 | < 10 | 8 to 16 (≈ 11.2 to 22.4 µM) | 2 to 4 (≈ 2.79 to 5.59 µM) | < 1 | – | – | – | – | – | – | – | 16 to 32 (≈ 22.4 to 44.7 µM) | 1 to 2 (≈ 1.4 to 2.79 µM) | 16 to 32 (≈ 22.4 to 44.7 µM) | 16 to 32 (≈ 22.4 to 44.7 µM) | 4 to 8 (≈ 5.59 to 11.2 µM) | > 64 | 16 to 32 (≈ 22.4 to 44.7 µM)
8 | O=C(NCCCN1CCN(C(=O)NC(C(=O)N[C@H]2Cc3ccc(F)c(C(=O)O)c3OB2O)c2cc(F)c(O)c(O)c2Cl)C(=O)C1=O)c1ccc(O)cc1 (stereo partly drawn) [Example 203, (3R)-3-(2-(2-chloro-5-fluoro-3,4-dihydroxyphenyl)-2-(4-(3-(4-hydroxybenzamido)propyl)-2,3-dioxopiperazine-1-carboxamido)acetamido)-7-fluoro-2-hydroxy-3,4-dihydro-2H-benzo[e][1,2]oxaborinine-8-carboxylic acid] | < 10 | < 10 | < 1 | 2 to 4 (≈ 2.63 to 5.26 µM) | 2 to 4 (≈ 2.63 to 5.26 µM) | 4 to 8 (≈ 5.26 to 10.5 µM) | < 1 | 4 to 8 (≈ 5.26 to 10.5 µM) | 4 to 8 (≈ 5.26 to 10.5 µM) | 4 to 8 (≈ 5.26 to 10.5 µM) | > 64 | 16 to 32 (≈ 21.1 to 42.1 µM) | – | – | – | – | – | – | –
9 | O=C(NCCN1CCN(C(=O)NC(C(=O)N[C@H]2Cc3ccc(F)c(C(=O)O)c3OB2O)c2cc(F)c(O)c(O)c2Cl)C(=O)C1=O)c1ccc(O)cc1 (stereo partly drawn) [Example 214, (3R)-3-(2-(2-chloro-5-fluoro-3,4-dihydroxyphenyl)-2-(4-(2-(4-hydroxybenzamido)ethyl)-2,3-dioxopiperazine-1-carboxamido)acetamido)-7-fluoro-2-hydroxy-3,4-dihydro-2H-benzo[e][1,2]oxaborinine-8-carboxylic acid] | < 10 | < 10 | 2 to 4 (≈ 2.68 to 5.36 µM) | 2 to 4 (≈ 2.68 to 5.36 µM) | 8 to 16 (≈ 10.7 to 21.5 µM) | 4 to 8 (≈ 5.36 to 10.7 µM) | 1 to 2 (≈ 1.34 to 2.68 µM) | 16 to 32 (≈ 21.5 to 42.9 µM) | 4 to 8 (≈ 5.36 to 10.7 µM) | 4 to 8 (≈ 5.36 to 10.7 µM) | > 64 | 16 to 32 (≈ 21.5 to 42.9 µM) | – | – | – | – | – | – | –
10 | O=C(CN1CCN(C(=O)NC(C(=O)N[C@H]2Cc3ccc(F)c(C(=O)O)c3OB2O)c2cc(F)c(O)c(O)c2Cl)C(=O)C1=O)Nc1ccccc1 (stereo partly drawn) [Example 232, (3R)-3-(2-(2-chloro-5-fluoro-3,4-dihydroxyphenyl)-2-(2,3-dioxo-4-(2-oxo-2-(phenylamino)ethyl)piperazine-1-carboxamido)acetamido)-7-fluoro-2-hydroxy-3,4-dihydro-2H-benzo[e][1,2]oxaborinine-8-carboxylic acid] | < 10 | < 10 | 2 to 4 (≈ 2.79 to 5.59 µM) | 2 to 4 (≈ 2.79 to 5.59 µM) | 32 to 64 (≈ 44.7 to 89.4 µM) | 16 to 32 (≈ 22.4 to 44.7 µM) | 1 to 2 (≈ 1.4 to 2.79 µM) | 16 to 32 (≈ 22.4 to 44.7 µM) | 16 to 32 (≈ 22.4 to 44.7 µM) | 4 to 8 (≈ 5.59 to 11.2 µM) | > 64 | 16 to 32 (≈ 22.4 to 44.7 µM) | – | – | – | – | – | – | –
